Reference: article PMC11992225, “Antibacterial compounds against non-growing and intracellular bacteria” (npj Antimicrobials and Resistance, 2025)
In brackets after ≈: the same amount, converted by molar mass. Where two headings read alike, the source gives them in different places.

How the values were obtained:
P. aeruginosa DSM1117 = assay: MIC, standard microdilution assay, growing P. aeruginosa; assay type: cell-based, Pseudomonas aeruginosa; details: P. aeruginosa
Summary of the method: (§1)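 Each strain was exposed to serially diluted compound in broth, in triplicate. The media were TSB for Shigella; CA-MHB at pH 7.4 (HEPES 40 mM) for S. aureus, P. aeruginosa and UPEC; and, for UPEC only, low-pH LPM (pH 5.5, 30 mM MES).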

S. aureus DSM2569 = assay: MIC, standard microdilution assay, growing S. aureus; assay type: cell-based, Staphylococcus aureus; details: S. aureus, CA-MHB pH 7.4, read-out: MIC (μM) CA-MHB
Summary of the method: as §1

non-growing UPEC CFT073 = assay: Dilution-regrowth assay (screen, hit validation, dose-response) on stationary-phase UPEC; assay type: cell-based, Escherichia coli; details: for Regrowth: OD600 after dilution into drug-free medium (mean): OD600 at 6h or 8h; for EC50: E. coli, regrowth delay of non-growing bacteria, 24 h treatment, OD600 6 h after 2500-fold dilution, read-out: EC50
Summary of the method: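 Regrowth (OD600 after 6 h, 37 °C) of diluted non-growing CFT073, following 24 h compound treatment of 24 h stationary cultures, defines activity relative to untreated control. Screen at 20 µM, validation at 20, 10, 5 µM (duplicates), dose–response in three biological replicates fitted by five-parameter logistic.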

S. flexneri 5a M90T = assay: MIC in tryptic soy broth, S. flexneri; assay type: cell-based, Shigella flexneri; details: for MIC: Shigella flexneri, 5AM90T, read-out: MIC (μM) TSB; for MIC (μM) TSB: S. flexneri, extracellular bacteria in TSB
Summary of the method: as §1

E. coli CFT073 (UPEC) = assay: MIC, standard microdilution assay, growing UPEC; assay type: cell-based, Escherichia coli; details: E. coli
Summary of the method: as §1

[1] = test system: non-growing P. aeruginosa DSM1117; assay: Dilution-regrowth assay (OD600, start-growth-time) on stationary-phase P. aeruginosa; assay type: cell-based, Pseudomonas aeruginosa; details: P. aeruginosa; for Regrowth: OD600 after dilution into drug-free medium (mean): OD600 at 6h or 8h; for EC50: regrowth delay of non-growing bacteria, 1:4 CA-MHB pH 7.4, 24 h treatment, OD600 8 h after dilution, read-out: EC50
Summary of the method: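 Stationary-phase cultures grown 24 h at 37 °C, 200 rpm, in 1:4 CA-MHB with 40 mM HEPES (pH 7.4), treated 24 h; preliminary compounds at 20 μM, 4 replicates. Regrowth OD600 read every 20 min at 37 °C; start-growth-time is when OD600 exceeds 0.12.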

[2] = Pseudomonas aeruginosa, DSM1117, 1:4 diluted CA-MHB pH 7.4, read-out: MIC (μM) 1:4 CA-MHB
[3] = Pseudomonas aeruginosa, DSM1117, CA-MHB pH 7.4, read-out: MIC (μM) CA-MHB
[4] = Escherichia coli, LPM pH 5.5, read-out: MIC
[5] = Escherichia coli, pH 7.4, 1:4 diluted CA-MHB, read-out: MIC (μM) 1:4 CA-MHB
[6] = Escherichia coli, pH 7.4, CA-MHB, read-out: MIC (μM) CA-MHB
[7] = Pseudomonas aeruginosa, DSM1117
[8] = Escherichia coli, pH 7.4, 1:4 CA-MHB
[9] = CA-MHB pH 7.4, read-out: MIC (μM) CA-MHB
[10] = pH 7.4, CA-MHB, read-out: MIC (μM) CA-MHB

CO[C@H]1/C=C/O[C@@]2(C)Oc3c(C)c(O)c4c(c3C2=O)C2=NC3(CCN(CC(C)C)CC3)NC2=C(NC(=O)/C(C)=C\C=C\[C@H](C)[C@H](O)[C@@H](C)[C@@H](O)[C@@H](C)[C@H](OC(C)=O)[C@@H]1C)C4=O [Rifabutin]
MIC (P. aeruginosa DSM1117; [2]): 10 µM (≈ 8.47 µg/mL)
MIC (P. aeruginosa DSM1117; [3]): 40 µM (≈ 33.9 µg/mL)
MIC (S. aureus DSM2569; Staphylococcus aureus, DSM2569): 0.025 µM (≈ 0.0212 µg/mL)
Regrowth: OD600 after dilution into drug-free medium (mean) (non-growing UPEC CFT073; E. coli in 1:4 CA-MHB (pH 7.4), concentration 0.25): 0.656
Regrowth: OD600 after dilution into drug-free medium (mean) (non-growing UPEC CFT073; E. coli in 1:4 CA-MHB (pH 7.4), concentration 0.5): 0.633
Regrowth: OD600 after dilution into drug-free medium (mean) (non-growing UPEC CFT073; E. coli in 1:4 CA-MHB (pH 7.4), concentration 1): 0.623
Regrowth: OD600 after dilution into drug-free medium (mean) (non-growing UPEC CFT073; E. coli in 1:4 CA-MHB (pH 7.4), concentration 2.5): 0.617
Regrowth: OD600 after dilution into drug-free medium (mean) (non-growing UPEC CFT073; E. coli in 1:4 CA-MHB (pH 7.4), concentration 5): 0.605
Regrowth: OD600 after dilution into drug-free medium (mean) (non-growing UPEC CFT073; E. coli in 1:4 CA-MHB (pH 7.4), concentration 10): 0.612
Regrowth: OD600 after dilution into drug-free medium (mean) (non-growing UPEC CFT073; E. coli in LPM (pH 5.5), concentration 0.25): 0.569
Regrowth: OD600 after dilution into drug-free medium (mean) (non-growing UPEC CFT073; E. coli in LPM (pH 5.5), concentration 0.5): 0.563
Regrowth: OD600 after dilution into drug-free medium (mean) (non-growing UPEC CFT073; E. coli in LPM (pH 5.5), concentration 1): 0.555
Regrowth: OD600 after dilution into drug-free medium (mean) (non-growing UPEC CFT073; E. coli in LPM (pH 5.5), concentration 2.5): 0.521
Regrowth: OD600 after dilution into drug-free medium (mean) (non-growing UPEC CFT073; E. coli in LPM (pH 5.5), concentration 5): 0.497
Regrowth: OD600 after dilution into drug-free medium (mean) (non-growing UPEC CFT073; E. coli in LPM (pH 5.5), concentration 10): 0.485
MIC (S. flexneri 5a M90T): 32 µM (≈ 27.1 µg/mL)
MIC (E. coli CFT073 (UPEC); [4]): 2 µM (≈ 1.69 µg/mL)
MIC (E. coli CFT073 (UPEC); [5]): 0.625 µM (≈ 0.529 µg/mL)
MIC (E. coli CFT073 (UPEC); [6]): 8 µM (≈ 6.78 µg/mL)
Regrowth: OD600 after dilution into drug-free medium (mean) ([1]; concentration 0.1): 0.637
Regrowth: OD600 after dilution into drug-free medium (mean) ([1]; concentration 0.5): 0.579
Regrowth: OD600 after dilution into drug-free medium (mean) ([1]; concentration 2.5): 0.109
Regrowth: OD600 after dilution into drug-free medium (mean) ([1]; concentration 10): 0.093
EC50 [1, 7]: 942 nM

CC[C@H]1OC(=O)C[C@@H](O)[C@H](C)[C@@H](O[C@@H]2O[C@H](C)C[C@H](N(C)C)[C@H]2O)[C@@H](CC=O)C[C@@H](C)C(=O)/C=C/[C@]2(C)O[C@H]2[C@@H]1C [Rosamicin]
MIC (P. aeruginosa DSM1117; [2]): 100 µM (≈ 58.2 µg/mL)
MIC (P. aeruginosa DSM1117; [3]): > 100 µM
MIC (S. aureus DSM2569; Staphylococcus aureus, DSM2569): 2 µM (≈ 1.16 µg/mL)
EC50 (non-growing UPEC CFT073; [8]): 858 nM
MIC (S. flexneri 5a M90T): 16 µM (≈ 9.31 µg/mL)
MIC (E. coli CFT073 (UPEC); [5]): 6.25 µM (≈ 3.64 µg/mL)
MIC (E. coli CFT073 (UPEC); [6]): 25 µM (≈ 14.5 µg/mL)
EC50 [1, 7]: 2300 nM

O=C(O)c1cn(-c2ccc(F)cc2)c2cc(N3CCNCC3)c(F)cc2c1=O [Sarafloxacin]
MIC (P. aeruginosa DSM1117; [2]): 2 µM (≈ 0.771 µg/mL)
MIC (P. aeruginosa DSM1117; [3]): 2 µM (≈ 0.771 µg/mL)
MIC (S. aureus DSM2569; Staphylococcus aureus, DSM2569): 1 µM (≈ 0.385 µg/mL)
EC50 (non-growing UPEC CFT073; [8]): 1720 nM
MIC (S. flexneri 5a M90T): 0.0625 µM (≈ 0.0241 µg/mL)
MIC (E. coli CFT073 (UPEC); [4]): 0.5 µM (≈ 0.193 µg/mL)
MIC (E. coli CFT073 (UPEC); [6]): 0.05 µM (≈ 0.0193 µg/mL)
EC50 [1, 7]: 216 nM

CC(=O)[O][Pt]([NH2])([Cl])([Cl])([NH]C1CCCCC1)[O]C(C)=O [Satraplatin]
MIC (P. aeruginosa DSM1117; [9]): 160 µM
MIC (S. aureus DSM2569): 80 µM
Regrowth, OD600 at 6h or 8h after dilution into drug-free medium (average) (non-growing UPEC CFT073; E. coli in 1:4 CA-MHB (pH 7.4), drug concentration 0.25): 0.615
Regrowth, OD600 at 6h or 8h after dilution into drug-free medium (average) (non-growing UPEC CFT073; E. coli in 1:4 CA-MHB (pH 7.4), drug concentration 0.5): 0.612
Regrowth, OD600 at 6h or 8h after dilution into drug-free medium (average) (non-growing UPEC CFT073; E. coli in 1:4 CA-MHB (pH 7.4), drug concentration 1): 0.620
Regrowth, OD600 at 6h or 8h after dilution into drug-free medium (average) (non-growing UPEC CFT073; E. coli in 1:4 CA-MHB (pH 7.4), drug concentration 2.5): 0.601
Regrowth, OD600 at 6h or 8h after dilution into drug-free medium (average) (non-growing UPEC CFT073; E. coli in 1:4 CA-MHB (pH 7.4), drug concentration 5): 0.592
Regrowth, OD600 at 6h or 8h after dilution into drug-free medium (average) (non-growing UPEC CFT073; E. coli in 1:4 CA-MHB (pH 7.4), drug concentration 10): 0.597
Regrowth, OD600 at 6h or 8h after dilution into drug-free medium (average) (non-growing UPEC CFT073; E. coli in 1:4 CA-MHB (pH 7.4), drug concentration 30): 0.570
Regrowth, OD600 at 6h or 8h after dilution into drug-free medium (average) (non-growing UPEC CFT073; E. coli in LPM (pH 5.5), drug concentration 0.25): 0.566
Regrowth, OD600 at 6h or 8h after dilution into drug-free medium (average) (non-growing UPEC CFT073; E. coli in LPM (pH 5.5), drug concentration 0.5): 0.557
Regrowth, OD600 at 6h or 8h after dilution into drug-free medium (average) (non-growing UPEC CFT073; E. coli in LPM (pH 5.5), drug concentration 1): 0.558
Regrowth, OD600 at 6h or 8h after dilution into drug-free medium (average) (non-growing UPEC CFT073; E. coli in LPM (pH 5.5), drug concentration 2.5): 0.474
Regrowth, OD600 at 6h or 8h after dilution into drug-free medium (average) (non-growing UPEC CFT073; E. coli in LPM (pH 5.5), drug concentration 5): 0.354
Regrowth, OD600 at 6h or 8h after dilution into drug-free medium (average) (non-growing UPEC CFT073; E. coli in LPM (pH 5.5), drug concentration 10): 0.251
Regrowth, OD600 at 6h or 8h after dilution into drug-free medium (average) (non-growing UPEC CFT073; E. coli in LPM (pH 5.5), drug concentration 30): 0.087
EC50 (non-growing UPEC CFT073; LPM pH 5.5): 7620 nM
activity against non-growing UPEC in LPM (pH 5.5) compared to 1:4 CA-MHB (pH 7.4) (non-growing UPEC CFT073; regrowth delay and killing, Figs. 2 and 3): potentiated by the low pH
MIC (μM) TSB (S. flexneri 5a M90T): 128 µM
MIC (E. coli CFT073 (UPEC); LPM pH 5.5, read-out: MIC): 32 µM
MIC (E. coli CFT073 (UPEC); [10]): >160 µM
Regrowth, OD600 at 6h or 8h after dilution into drug-free medium (average) ([1]; drug concentration 0.1): 0.622
Regrowth, OD600 at 6h or 8h after dilution into drug-free medium (average) ([1]; drug concentration 0.5): 0.518
Regrowth, OD600 at 6h or 8h after dilution into drug-free medium (average) ([1]; drug concentration 2.5): 0.207
Regrowth, OD600 at 6h or 8h after dilution into drug-free medium (average) ([1]; drug concentration 10): 0.094
EC50 [1]: 1200 nM

N[C@@H]1CN(c2c(F)cc3c(=O)c(C(=O)O)cn([C@@H]4C[C@@H]4F)c3c2Cl)CC12CC2 [Sitafloxacin]
MIC (P. aeruginosa DSM1117; 1:4 diluted CA-MHB pH 7.4, read-out: MIC (μM) 1:4 CA-MHB): 0.5 µM (≈ 0.205 µg/mL)
MIC (P. aeruginosa DSM1117; [9]): 0.5 µM (≈ 0.205 µg/mL)
MIC (S. aureus DSM2569): 0.125 µM (≈ 0.0512 µg/mL)
EC50 (non-growing UPEC CFT073; LPM pH 5.5): 10800 nM
EC50 (non-growing UPEC CFT073; pH 7.4, 1:4 CA-MHB): 187 nM
MIC (μM) TSB (S. flexneri 5a M90T): 0.01562 µM (≈ 0.0064 µg/mL)
MIC (E. coli CFT073 (UPEC); LPM pH 5.5, read-out: MIC): 0.5 µM (≈ 0.205 µg/mL)
MIC (E. coli CFT073 (UPEC); [10]): 0.025 µM (≈ 0.0102 µg/mL)
EC50 [1]: 54 nM
